System: SARS-CoV-2
Assay: microbe, parasite or virus in culture
Conditions: Severe acute respiratory syndrome coronavirus 2, Vero C1008, 48 h

## CN1CC[C@@H](c2c(O)cc(O)c3c(=O)cc(-c4ccccc4Cl)oc23)[C@@H]1CO
  IC50: > 20 µM
read-out: pIC50 (converted)
  IC50: > 20 µM

## CN1C(=O)CN=C(c2ccccc2F)c2cc(Cl)ccc21 [FLUDIAZEPAM]
  IC50: > 20 µM
read-out: pIC50 (converted)
  IC50: > 20 µM

## COc1ccc(C(=O)c2ccccc2)c(O)c1 [OXYBENZONE]
  IC50: > 20 µM
read-out: pIC50 (converted)
  IC50: > 20 µM

## Cn1c([N+](=O)[O-])cnc1/C=N/N1CC(CN2CCOCC2)OC1=O (stereo not drawn) [MOXNIDAZOLE]
  IC50: > 20 µM
read-out: pIC50 (converted)
  IC50: > 20 µM

## CC(C)CCC[C@@H](C)[C@H]1CC[C@H]2[C@@H]3CC=C4CC(O)CC[C@]4(C)[C@H]3CC[C@]12C (stereo partly drawn)
  IC50: > 20 µM
read-out: pIC50 (converted)
  IC50: > 20 µM

## CCN(CCNC(=O)Nc1ccccc1Br)c1cccc(C)c1
  IC50: > 20 µM
read-out: pIC50 (converted)
  IC50: > 20 µM

## CCCCCCCCCCCCN1CCCCCC1=O [LAUROCAPRAM]
  IC50: > 20 µM
read-out: pIC50 (converted)
  IC50: > 20 µM

## CC1=CC(=O)C2=C(C)C[C@H](O)[C@@H]3[C@H](OC(=O)[C@H]3C)[C@@H]12 [AUSTRICIN]
  IC50: > 20 µM
read-out: pIC50 (converted)
  IC50: > 20 µM

## CO/N=C(\C(=O)N[C@@H]1C(=O)N2C(C(=O)O)=C(CSc3nc(=O)c(O)nn3C)CS[C@H]12)c1csc(N)n1 [CEFTRIAXONE]
  IC50: > 20 µM
read-out: pIC50 (converted)
  IC50: > 20 µM

## CCCCC1OC(=O)c2ccccc21 (stereo not drawn) [RAC-3-N-BUTYLPHTHALIDE]
  IC50: > 20 µM
read-out: pIC50 (converted)
  IC50: > 20 µM

## CCCC[C@@]1(CC)CS(=O)(=O)c2cc(CNC(CC(=O)O)CC(=O)O)c(OC)cc2[C@H](c2ccccc2)N1
  IC50: > 20 µM
read-out: pIC50 (converted)
  IC50: > 20 µM

## CC1CC[C@@]2(OC1)OC1CC3C4CC[C@@H]5C[C@@H](O)CC[C@]5(C)C4CC[C@]3(C)C1[C@@H]2C (stereo partly drawn)
  IC50: > 20 µM
read-out: pIC50 (converted)
  IC50: > 20 µM

## COc1cc2c(Oc3ccc(NC(=O)C4(C(=O)Nc5ccc(F)cc5)CC4)cc3F)ccnc2cc1OCCCN1CCOCC1 [FORETINIB]
  IC50: > 20 µM
read-out: pIC50 (converted)
  IC50: > 20 µM

## O=C(O)CCCc1ccc(N(CCCl)CCCl)cc1 [CHLORAMBUCIL]
  IC50: > 20 µM
read-out: pIC50 (converted)
  IC50: > 20 µM

## COc1cc2ncnc(Oc3cccc(NC(=O)Nc4cc(C(C)(C)C(F)(F)F)on4)c3)c2cc1OC [CEP-32496]
  IC50: > 20 µM
read-out: pIC50 (converted)
  IC50: > 20 µM

## O=C(O)CC(=O)O [MALONIC ACID]
  IC50: > 20 µM
read-out: pIC50 (converted)
  IC50: > 20 µM

## COc1cc2c(cc1Cc1cccc(Cl)c1F)c(=O)c(C(=O)O)cn2[C@@H](CO)C(C)C
  IC50: > 20 µM
read-out: pIC50 (converted)
  IC50: > 20 µM

## CC(C)(C)NCC(O)COc1ccc(NC(=O)NC2CCCCC2)cc1 (stereo not drawn) [TALINOLOL]
  IC50: > 20 µM
read-out: pIC50 (converted)
  IC50: > 20 µM

## O=C(CO)[C@@H]1CCCN1C(=O)[C@@H]1CCCN1C(=O)NCc1ccccc1
  IC50: > 20 µM
read-out: pIC50 (converted)
  IC50: > 20 µM

## CCC(=O)NS(=O)(=O)c1ccc(NC(=O)COc2ccc(Cl)cc2C(=O)c2cc(Cl)cc(C#N)c2)c(C)c1 [GW-695634]
  IC50: > 20 µM
read-out: pIC50 (converted)
  IC50: > 20 µM

## CCOCCn1c(N2CCCN(C)CC2)nc2ccccc21 [EMEDASTINE]
  IC50: > 20 µM
read-out: pIC50 (converted)
  IC50: > 20 µM

## N#CCCCSC(=N)N [4-ISOTHIOUREIDOBUTYRONITRILE]
  IC50: > 20 µM
read-out: pIC50 (converted)
  IC50: > 20 µM

## Cc1nc(N2CCN(C)CC2)c2nc(-c3ccccc3Cl)n(C3CCOCC3)c2n1 [LY2828360]
  IC50: > 20 µM
read-out: pIC50 (converted)
  IC50: > 20 µM

## Cn1c(=O)[nH]c2ncn(C)c2c1=O [PARAXANTHINE]
  IC50: > 20 µM
read-out: pIC50 (converted)
  IC50: > 20 µM

## Nc1nc(N)c2nc(-c3ccccc3)c(N)nc2n1
  IC50: > 20 µM
read-out: pIC50 (converted)
  IC50: > 20 µM

## CC1(C)CC2C1CCC1(C)OC2(C)CCC1O (stereo not drawn) [3,7-EPOXYCARYOPHYLLAN-6-OL]
  IC50: > 20 µM
read-out: pIC50 (converted)
  IC50: > 20 µM

## O=C(O)[C@@H]1[C@H]2C[C@H]3c4[nH]c5ccccc5c4CCN3C[C@@H]2CC[C@@H]1O [YOHIMBIC ACID]
  IC50: > 20 µM
read-out: pIC50 (converted)
  IC50: > 20 µM

## CCC(=O)Oc1ccc2c(c1)CCC1C2CCC2(C)C(OC(=O)CC)CCC12 (stereo not drawn)
  IC50: > 20 µM
read-out: pIC50 (converted)
  IC50: > 20 µM

## O=C(/C=C\n1cnc(-c2cc(C(F)(F)F)cc(C(F)(F)F)c2)n1)NNc1cnccn1 [SELINEXOR]
  IC50: > 20 µM
read-out: pIC50 (converted)
  IC50: > 20 µM

## CCC(C)SSc1ncc[nH]1 (stereo not drawn) [PX-12]
  IC50: > 20 µM
read-out: pIC50 (converted)
  IC50: > 20 µM

## CC(C)NC[C@H](O)COc1ccc(CC(N)=O)cc1 [ESATENOLOL]
  IC50: > 20 µM
read-out: pIC50 (converted)
  IC50: > 20 µM

## CCOc1ccccc1OCCN[C@H](C)Cc1ccc(OC)c(S(N)(=O)=O)c1 [TAMSULOSIN]
  IC50: > 20 µM
read-out: pIC50 (converted)
  IC50: > 20 µM

## COCC(=O)NC/C=C/c1ccc2ncnc(Nc3ccc(Oc4ccc(C)nc4)c(C)c3)c2c1 [CP-724714]
  IC50: > 20 µM
read-out: pIC50 (converted)
  IC50: > 20 µM

## CCC(C(=O)OCCN(CC)CC)c1ccccc1 (stereo not drawn) [BUTETAMATE]
  IC50: > 20 µM
read-out: pIC50 (converted)
  IC50: > 20 µM

## CCCCC/C=C/C/C=C/CCCCCCCC(=O)NC(C)c1ccccc1 (stereo not drawn) [MELINAMIDE]
  IC50: > 20 µM
read-out: pIC50 (converted)
  IC50: > 20 µM

## CC(=O)Nc1cccc(O)c1 [METACETAMOL]
  IC50: > 20 µM
read-out: pIC50 (converted)
  IC50: > 20 µM

## Cc1ccc2nc(N3CCS(=O)(=O)c4ccccc4C3)nc(NCC3(N)COC3)c2c1 [ZIRESOVIR]
  IC50: > 20 µM
read-out: pIC50 (converted)
  IC50: > 20 µM

## CN1C(=O)NC(=O)C(C)(C2=CCCCC2)C1=O (stereo not drawn) [HEXOBARBITAL]
  IC50: > 20 µM
read-out: pIC50 (converted)
  IC50: > 20 µM

## CN[C@@H](C)[C@H](O)c1ccccc1 [EPHEDRINE]
  IC50: > 20 µM
read-out: pIC50 (converted)
  IC50: > 20 µM

## Nc1nc(N)nc(NC2CC2)n1 [CYROMAZINE]
  IC50: > 20 µM
read-out: pIC50 (converted)
  IC50: > 20 µM

## C[N+](C)(C)C[C@H](O)CC(=O)O [DEXTROCARNITINE]
  IC50: > 20 µM
read-out: pIC50 (converted)
  IC50: > 20 µM

## Cc1c(N)cccc1Cn1ccc(OCCc2cccs2)cc1=O [CG-400549]
  IC50: > 20 µM
read-out: pIC50 (converted)
  IC50: > 20 µM

## CC(=O)c1ccc(C)cc1N[C@H](C(N)=O)c1c(Cl)cccc1Cl
  IC50: > 20 µM
read-out: pIC50 (converted)
  IC50: > 20 µM

## CN(C)CCCN1c2ccccc2CCc2ccc(C#N)cc21 [CIANOPRAMINE]
  IC50: > 20 µM
read-out: pIC50 (converted)
  IC50: > 20 µM

## NC(=O)c1ccc(I)c([N+](=O)[O-])c1 [INIPARIB]
  IC50: > 20 µM
read-out: pIC50 (converted)
  IC50: > 20 µM

## Nc1cc(N2CCCCC2)nc(N)[n+]1[O-] [MINOXIDIL]
  IC50: > 20 µM
read-out: pIC50 (converted)
  IC50: > 20 µM

## CC(=O)[C@@]1(O)CC[C@H]2[C@@H]3CCC4=CC(=O)CC[C@]4(C)[C@H]3CC[C@@]21C [HYDROXYPROGESTERONE]
  IC50: > 20 µM
read-out: pIC50 (converted)
  IC50: > 20 µM

## CCCC(C)C1(CC)C(=O)NC(=S)NC1=O (stereo not drawn) [THIOPENTAL]
  IC50: > 20 µM
read-out: pIC50 (converted)
  IC50: > 20 µM

## O=c1[nH]c(=O)c2nc3ccccc3nc2[nH]1 [ALLOXAZINE]
  IC50: > 20 µM
read-out: pIC50 (converted)
  IC50: > 20 µM

## COC(=O)Nc1nc2cc(SC(C)C)ccc2[nH]1
  IC50: > 20 µM
read-out: pIC50 (converted)
  IC50: > 20 µM

## COc1cc(C(C)=O)ccc1OCCCN1CCC(c2noc3cc(F)ccc23)CC1 [ILOPERIDONE]
  IC50: > 20 µM
read-out: pIC50 (converted)
  IC50: > 20 µM

## CCN(c1cc(-c2ccc(CN3CCOCC3)cc2)cc(C(=O)NCc2c(C)cc(C)[nH]c2=O)c1C)C1CCOCC1 [TAZEMETOSTAT]
  IC50: > 20 µM
read-out: pIC50 (converted)
  IC50: > 20 µM

## CN(CCOc1ccc(NS(C)(=O)=O)cc1)CCc1ccc(NS(C)(=O)=O)cc1 [DOFETILIDE]
  IC50: > 20 µM
read-out: pIC50 (converted)
  IC50: > 20 µM

## C#C[C@]1(O)CC[C@H]2[C@@H]3CCC4=CC(=O)CCC4=C3C=C[C@@]21CC [GESTRINONE]
  IC50: > 20 µM
read-out: pIC50 (converted)
  IC50: > 20 µM

## CCOc1ccc(/N=C(\C)Nc2ccc(OCC)cc2)cc1 [PHENACAINE]
  IC50: > 20 µM
read-out: pIC50 (converted)
  IC50: > 20 µM

## CN1CCC(N(Cc2cccs2)c2ccccc2)CC1 [THENALIDINE]
  IC50: > 20 µM
read-out: pIC50 (converted)
  IC50: > 20 µM

## N=C(Nc1ccccc1)Nc1ccccc1
  IC50: > 20 µM
read-out: pIC50 (converted)
  IC50: > 20 µM

## Cn1c(Nc2ccc(C(F)(F)F)cc2)nc2cc(Oc3ccnc(-c4ncc(C(F)(F)F)[nH]4)c3)ccc21 [RAF-265]
  IC50: > 20 µM
read-out: pIC50 (converted)
  IC50: > 20 µM

## O=C1N[11C](=O)C(c2ccccc2)(c2ccccc2)N1
  IC50: > 20 µM
read-out: pIC50 (converted)
  IC50: > 20 µM

## COc1cc(NS(=O)(=O)c2ccc(N)cc2)nc(OC)n1 [SULFADIMETHOXINE]
  IC50: > 20 µM
read-out: pIC50 (converted)
  IC50: > 20 µM

## CCOc1ccccc1O[C@@H](c1ccccc1)[C@H]1CNCCO1
  IC50: > 20 µM
read-out: pIC50 (converted)
  IC50: > 20 µM

## CC(=O)OC(C)C(=O)OCC[N+](C)(C)C (stereo not drawn) [ACLATONIUM]
  IC50: > 20 µM
read-out: pIC50 (converted)
  IC50: > 20 µM

## C[C@H](O)[C@H](O)[C@H]1CNc2nc(N)[nH]c(=O)c2N1 [SAPROPTERIN]
  IC50: > 20 µM
read-out: pIC50 (converted)
  IC50: > 20 µM

## [O-][n+]1ccccc1S [PYRITHIONE]
  IC50: > 20 µM
read-out: pIC50 (converted)
  IC50: > 20 µM

From ChEMBL document CHEMBL4651402, “Screening of ~5500 FDA-approved drugs and clinical candidates for anti-SARS-CoV-2 activity” (2021)
